In patent US11236068B2, “Fused ring compounds” (Genentech, Inc., priority 2018, dated 2022):

How the values were obtained:
[1] = target: K-Ras G12C (Homo sapiens (Human), UniProt P01116, G12C); experiment: Western blot assay for in cell alkylation of K-Ras G12C (HCC1171 cells); format: cell-based; conditions: 18 hours at 37° C., 7 point dose response
Procedure: HCC1171 cells were maintained in RPMI1640 supplemented with 10% FBS. Cells were plated in a 96-well plate at 20,000 cells/well and the following day compounds were added to the cells. After 18 hours at 37° C., cells were lysed in RIPA buffer (Sigma RO278) with 0.5% SDS and protease/phosphatase inhibitor cocktail. After through mixing to enable complete lysis, the lysates were cleared by centrifugation before 20 µl was transferred from each well and combined with loading buffer and reducing agent. After heating for 10 minutes at 95° C., […] of each sample was loaded onto a 4-20% Tris-Glycine gel and electrophoresed at 110V for 165 minutes in SDS-PAGE running buffer. Gels were transferred to a nitrocellulose membrane, blocked for 1 hour and stained overnight at 4° C. with primary antibody against K-Ras (polyclonal Proteintech 12063-1-AP). The membrane was then washed thoroughly and counterstained with anti-rabbit IRDye 800CW (LI-COR 926-32211) for one hour at room temperature. After final washes, the membrane was imaged on a LI-COR Odyssey CLx at medium resolution. […] To quantify this affect, the LICOR software was used to draw a rectangle over alkylated and unalkylated bands for each well and measured the total fluorescent intensity (FI) in each of these bands. The following formula was then used to calculate % alkylation: FI(alkylated)/(FI(alkylated)+FI(unalkylated))*100 for each well.
A 7 point dose response curve was used to determine the IC50 for each compound. Cell alkylation data are presented below in Table 3.

[2] = Whole blood stability assay; format: in vitro ADME; conditions: fresh whole blood, drug final concentration 1 μM, 37° C., 180 minutes
Procedure: Whole Blood Stability Assay
A whole blood stability assay was performed using fresh blood with a drug final concentration of 1 μM. The drug-blood mixtures were incubated at 37° C. for 180 minutes.

K-Ras G12C, sequence (P01116 other isoform, or with tags, fused parts or gaps G12C): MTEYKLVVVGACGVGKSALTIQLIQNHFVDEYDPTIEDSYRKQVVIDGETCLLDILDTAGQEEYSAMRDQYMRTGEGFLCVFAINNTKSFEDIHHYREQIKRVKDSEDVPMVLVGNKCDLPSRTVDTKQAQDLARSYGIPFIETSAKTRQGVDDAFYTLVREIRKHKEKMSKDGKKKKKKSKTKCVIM

EC50 [1] [nM]	half-life at 1 μM [2] [h]	SMILES
18	1.52	C=CC(=O)N1CCN(c2nc(OC[C@@H]3C[C@@H](OCC)CN3C)nc3cc(-c4nc(N)ccc4C(F)(F)F)c(Cl)cc23)CC1 [Example 71, 1-(4-(7-(6-amino-3-(trifluoromethyl)pyridin-2-yl)-6-chloro-2-(((2S,4R)-4-ethoxy-1-methylpyrrolidin-2-yl)methoxy)quinazolin-4-yl)piperazin-1-yl)prop-2-en-1-one]
18	3	C=CC(=O)N1CCN(c2nc(OC[C@@H]3C[C@@H](OC(F)F)CN3C)nc3cc(-c4nc(N)ccc4C(F)(F)F)c(Cl)cc23)CC1 [Example 92, 1-[4-[7-[6-amino-3-(trifluoromethyl)-2-pyridyl]-6-chloro-2-[[(2S,4R)-4-(difluoromethoxy)-1-methyl-pyrrolidin-2-yl]methoxy]quinazolin-4-yl]piperazin-1-yl]prop-2-en-1-one]
71	–	C=CC(=O)N1CCN(c2nc(OCC3CCC(COC)N3C)nc3cc(-c4nc(N)ccc4C(F)(F)F)c(Cl)cc23)CC1 (stereo not drawn) [Example 80, 1-(4-(7-(6-amino-3-(trifluoromethyl)pyridin-2-yl)-6-chloro-2-((5-(methoxymethyl)-1-methylpyrrolidin-2-yl)methoxy)quinazolin-4-yl)piperazin-1-yl)prop-2-en-1-one]
110	–	C=CC(=O)N1CCN(c2nc(OCC3(C)CC(F)(F)CN3C)nc3cc(-c4nc(N)ccc4C(F)(F)F)c(Cl)cc23)CC1 (stereo not drawn) [Example 73, 1-(4-(7-(6-amino-3-(trifluoromethyl)pyridin-2-yl)-6-chloro-2-((4,4-difluoro-1,2-dimethylpyrrolidin-2-yl)methoxy)quinazolin-4-yl)piperazin-1-yl)prop-2-en-1-one]
110	–	C=CC(=O)N1CCN(c2nc(OC(C)(C)[C@@H]3CCCN3C)nc3cc(-c4nc(N)ccc4C(F)(F)F)c(Cl)cc23)CC1 [Example 74, 1-[4-[7-[6-amino-3-(trifluoromethyl)-2-pyridyl]-6-chloro-2-[1-methyl-1-[(2S)-1-methylpyrrolidin-2-yl]ethoxy]quinazolin-4-yl]piperazin-1-yl]prop-2-en-1-one]
22	–	C=CC(=O)N1CCN(c2nc(OCC3(C)C[C@@H](F)CN3C)nc3cc(-c4nc(N)ccc4C(F)(F)F)c(Cl)cc23)CC1 (stereo partly drawn) [Example 96, 1-[4-[7-[6-amino-3-(trifluoromethyl)-2-pyridyl]-6-chloro-2-[[(4R)-4-fluoro-1,2-dimethyl-pyrrolidin-2-yl]methoxy]quinazolin-4-yl]piperazin-1-yl]prop-2-en-1-one]
180	–	C=CC(=O)N1CCN(c2nc(OC[C@@H]3CCCN3C3COC3)nc3cc(-c4nc(N)ccc4C(F)(F)F)c(Cl)cc23)CC1 [Example 87, 1-[4-[7-[6-amino-3-(trifluoromethyl)-2-pyridyl]-6-chloro-2-[[(2S)-1-(oxetan-3-yl)pyrrolidin-2-yl]methoxy]quinazolin-4-yl]piperazin-1-yl]prop-2-en-1-one]

The remaining lines, values behind:

SMILES	EC50 [1] [nM]	half-life at 1 μM [2] [h]
C=CC(=O)N1CCN(c2nc(OC[C@@H]3CCCN3C)nc3cc(-c4nc(N)cc(C)c4C(F)(F)F)c(Cl)cc23)[C@@H](C)C1 [Example 61, 1-((S)-4-(7-(6-amino-4-methyl-3-(trifluoromethyl)pyridin-2-yl)-6-chloro-2-(((S)-1-methylpyrrolidin-2-yl)methoxy)quinazolin-4-yl)-3-methylpiperazin-1-yl)prop-2-en-1-one]	2	2.67
Cc1cc(N)nc(-c2cc3nc(OC[C@@H]4CCCN4C)nc(N4CCN(C(=O)/C=C/C(F)F)C[C@@H]4C)c3cc2Cl)c1C(F)(F)F [Example 65, (E)-1-((S)-4-(7-(6-amino-4-methyl-3-(trifluoromethyl)pyridin-2-yl)-6-chloro-2-(((S)-1-methylpyrrolidin-2-yl)methoxy)quinazolin-4-yl)-3-methylpiperazin-1-yl)-4,4-difluorobut-2-en-1-one]	7.6	0.617
C=CC(=O)N1CCN(c2nc(OC[C@@H]3CCCN3C)nc3cc(-c4nc(N)ccc4C(F)(F)F)c(Cl)cc23)CC1 [Example 70, (S)-1-(4-(7-(6-amino-3-(trifluoromethyl)pyridin-2-yl)-6-chloro-2-((1-methylpyrrolidin-2-yl)methoxy)quinazolin-4-yl)piperazin-1-yl)prop-2-en-1-one]	19	1.02
C=CC(=O)N1CCN(c2ncnc3c(F)c(-c4nc(N)cc(C)c4C(F)(F)F)c(Cl)cc23)[C@@H](C)C1 [Example 19, 1-((3S)-4-(7-(6-amino-4-methyl-3-(trifluoromethyl)pyridin-2-yl)-6-chloro-8-fluoroquinazolin-4-yl)-3-methylpiperazin-1-yl)prop-2-en-1-one]	–	2.67
C=CC(=O)N1CCN(c2ncnc3cc(-c4ncccc4C)c(Cl)cc23)CC1 [Example 2, 1-[4-[6-chloro-7-(3-methyl-2-pyridyl)quinazolin-4-yl]piperazin-1-yl]prop-2-en-1-one]	16000	–
C=CC(=O)N1CCN(c2ncnc3cc(-c4nc(N)cc5cc(OC)ccc45)c(Cl)cc23)CC1 [Example 6, 1-[4-[7-(3-amino-6-methoxy-1-isoquinolyl)-6-chloro-quinazolin-4-yl]piperazin-1-yl]prop-2-en-1-one]	10000	–
C=CC(=O)N1CCN(c2nc(OC[C@@H]3C[C@@H](F)CN3C)nc3c(F)c(-c4nc(N)cc(C)c4C(F)(F)F)c(Cl)cc23)[C@@H](C)C1 [Example 69, 1-[(3S)-4-[7-[6-amino-4-methyl-3-(trifluoromethyl)-2-pyridyl]-6-chloro-8-fluoro-2-[[(2S,4R)-4-fluoro-1-methyl-pyrrolidin-2-yl]methoxy]quinazolin-4-yl]-3-methyl-piperazin-1-yl]prop-2-en-1-one]	1	> 9
C=CC(=O)N1CCN(c2ncnc3cc(-c4nc(NC(=O)C5CC5)cc5ccccc45)c(Cl)cc23)CC1 [Example 36, N-(1-(4-(4-acryloylpiperazin-1-yl)-6-chloroquinazolin-7-yl)isoquinolin-3-yl)cyclopropanecarboxamide]	5500	–
C=CC(=O)N1CCN(c2nc(NCCN(C)C)nc3cc(-c4nc(N)ccc4C(F)(F)F)c(Cl)cc23)CC1 [Example 45, 1-(4-[7-[6-amino-3-(trifluoromethyl)pyridin-2-yl]-6-chloro-2-[[2-(dimethylamino)ethyl]amino]quinazolin-4-yl]piperazin-1-yl)prop-2-en-1-one]	2400	–
C=CC(=O)N1CCN(c2ncnc3cc(-c4nc(N)ccc4C(F)(F)F)c(C(C)(F)F)cc23)CC1 [Example 21, 1-(4-(7-(6-amino-3-(trifluoromethyl)pyridin-2-yl)-6-(1,1-difluoroethyl)quinazolin-4-yl)piperazin-1-yl)prop-2-en-1-one]	2800	–
C=CC(=O)N1CCN(c2ncnc3cc(-c4nc(N)ccc4C(F)(F)F)c(Cl)cc23)CC1C(F)(F)F (stereo not drawn) [Example 25, 1-[4-[7-[6-amino-3-(trifluoromethyl)-2-pyridyl]-6-chloro-quinazolin-4-yl]-2-(trifluoromethyl)piperazin-1-yl]prop-2-en-1-one]	4200	–
C=CC(=O)N1CCN(c2ncnc3cc(-c4nc(N)ccc4C(F)(F)F)c(N4CCC4)cc23)CC1 [Example 20, 1-[4-[7-[6-amino-3-(trifluoromethyl)-2-pyridyl]-6-(azetidin-1-yl)quinazolin-4-yl]piperazin-1-yl]prop-2-en-1-one]	2300	–
C=CC(=O)N1CCN(c2ncnc3cc(-c4nc(N)ccc4C(F)(F)F)c(Cl)cc23)CC1 [Example 35, 1-(4-[7-[6-amino-3-(trifluoromethyl)pyridin-2-yl]-6-chloroquinazolin-4-yl]piperazin-1-yl)prop-2-en-1-one]	450	–
C=CC(=O)N1CCN(c2nc(NC)nc3cc(-c4nc(N)cc(C)c4C(F)(F)F)c(Cl)cc23)CC1 [Example 31, 1-(4-[7-[6-amino-4-methyl-3-(trifluoromethyl)pyridin-2-yl]-6-chloro-2-(methylamino)quinazolin-4-yl]piperazin-1-yl)prop-2-en-1-one]	200	–
